PubChem BioAssay AID330 (DTP/NCI, 2004)
Values joined by “and” are separate entries in the source; they are usually repeats but may differ in a detail not shown here. Equal values may be shown once. Inconclusive results and toxic doses are left out. How the source made its calls: active means survival T/C of 150% or more; inactive means T/C below 125% in these data. Square brackets hold non-standard residues; d marks the D form. Peptide text beside a SMILES is read from it. Nle = CCCC[CH](N)C(=O)O

System: P388 leukemia ip, CD2F1 mice, survival T/C
Test: NCI In Vivo Anticancer Drug Screen. Data for tumor model P388 Leukemia (intraperitoneal) in CD2F1 (CDF1) mice
Conditions: endpoint: median survival time, higher = longer survival
Summary of the method: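 Mice carrying the transplanted tumor received test compound or vehicle. Survival was recorded in each group, and the value is the treated-group measurement divided by that of the vehicle-treated control group.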

[1] = dose: 50.0 mg/kg/injection, schedule: Q01DX005 (ip), vehicle: saline
[2] = dose: 100.0 mg/kg/injection, schedule: Q01DX005 (ip), vehicle: saline
[3] = dose: 200.0 mg/kg/injection, schedule: Q01DX005 (ip), vehicle: saline
[4] = dose: 50.0 mg/kg/injection, schedule: Q01DX005 (ip), vehicle: Klucel (hydroxypropylcellulose) (HPC)
[5] = dose: 100.0 mg/kg/injection, schedule: Q01DX005 (ip), vehicle: Klucel (hydroxypropylcellulose) (HPC)
[6] = dose: 200.0 mg/kg/injection, schedule: Q01DX005 (ip), vehicle: Klucel (hydroxypropylcellulose) (HPC)
[7] = dose: 50.0 mg/kg/injection, schedule: Q01DX009 (ip), vehicle: saline
[8] = dose: 100.0 mg/kg/injection, schedule: Q04DX003 (ip), vehicle: saline with Tween-80
[9] = dose: 12.5 mg/kg/injection, schedule: Q01DX005 (ip), vehicle: Klucel (hydroxypropylcellulose) (HPC)
[10] = dose: 25.0 mg/kg/injection, schedule: Q01DX005 (ip), vehicle: Klucel (hydroxypropylcellulose) (HPC)
[11] = dose: 100.0 mg/kg/injection, schedule: Q01DX009 (ip), vehicle: saline with Tween-80
[12] = dose: 200.0 mg/kg/injection, schedule: Q01DX009 (ip), vehicle: saline with Tween-80
[13] = dose: 50.0 mg/kg/injection, schedule: Q01DX009 (ip), vehicle: saline with Tween-80

Measured: T/C

CCN1CC2(COC)CCC(OC)C34C5CC6C(OC)CC(O)(C5C6O)C(O)(C(OC)C23)C14 (stereo not given)
inactive: dose: 3.75 mg/kg/injection, schedule: Q01DX005 (ip), vehicle: saline + alcohol 96 % of control | dose: 7.5 mg/kg/injection, schedule: Q01DX005 (ip), vehicle: saline + alcohol 100 % of control | dose: 15.0 mg/kg/injection, schedule: Q01DX005 (ip), vehicle: saline + alcohol 102 % of control | dose: 30.0 mg/kg/injection, schedule: Q01DX005 (ip), vehicle: saline + alcohol 92 % of control | dose: 60.0 mg/kg/injection, schedule: Q01DX005 (ip), vehicle: saline + alcohol 99 % of control

COC(=O)C1C(CO)ON2CCC(OC)(OC)C12 (stereo not given)
inactive: [1] 99 % of control | [2] 92 % of control | [3] 96 % of control

Cc1ccc(S(=O)(=O)Oc2ccc3oc4cccc(NCCN(C)C)c4c(=O)c3c2)cc1
inactive: dose: 50.0 mg/kg/injection, schedule: Q01DX005 (ip), vehicle: saline with Tween-80 95 % of control | dose: 100.0 mg/kg/injection, schedule: Q01DX005 (ip), vehicle: saline with Tween-80 97 % of control | dose: 200.0 mg/kg/injection, schedule: Q01DX005 (ip), vehicle: saline with Tween-80 93 % of control

O/N=C/c1c(-c2ccccc2)nc2n1CCS2
inactive: dose: 100.0 mg/kg/injection, schedule: Q04DX002 (ip), vehicle: Klucel (hydroxypropylcellulose) (HPC) 101 % of control | dose: 200.0 mg/kg/injection, schedule: Q04DX002 (ip), vehicle: Klucel (hydroxypropylcellulose) (HPC) 99 % of control | dose: 400.0 mg/kg/injection, schedule: Q04DX002 (ip), vehicle: Klucel (hydroxypropylcellulose) (HPC) 98 % of control

CC1CCCCN1C(=O)C(c1ccccc1)(c1ccccc1)c1ccccc1 (stereo not given)
inactive: [4] 99 % of control | [5] 99 % of control | [6] 93 % of control

CCn1c2ccccc2c2cc(N=Nc3cc4cc5ccccc5cc4cc3N)ccc21
inactive: dose: 100.0 mg/kg/injection, schedule: Q04DX003 (ip), vehicle: Klucel (hydroxypropylcellulose) (HPC) 101 % of control | dose: 200.0 mg/kg/injection, schedule: Q04DX003 (ip), vehicle: Klucel (hydroxypropylcellulose) (HPC) 93 % of control

O=[N+]([O-])c1cc2c(ccc3ccccc32)o1
inactive: [4] 102 % of control | [5] 103 % of control | [6] 117 % of control

O=CNc1c(Br)cc2c(c1Br)Cc1cc([N+](=O)[O-])ccc1-2
inactive: dose: 6.25 mg/kg/injection, schedule: Q01DX009 (ip), vehicle: saline 97 % of control | dose: 12.5 mg/kg/injection, schedule: Q01DX009 (ip), vehicle: saline 90 % of control | dose: 25.0 mg/kg/injection, schedule: Q01DX009 (ip), vehicle: saline 92 % of control | [7] 89 % of control

O=C(Nc1ccccc1O)/C(Cl)=C/Cl
inactive: dose: 33.0 mg/kg/injection, schedule: Q01DX009 (ip), vehicle: saline with Tween-80 120 % of control | dose: 75.0 mg/kg/injection, schedule: Q01DX009 (ip), vehicle: saline with Tween-80 115 % of control | [8] 105 % of control | dose: 200.0 mg/kg/injection, schedule: Q04DX003 (ip), vehicle: saline with Tween-80 120 % of control

CCCCC(N)C(=O)NC(CCSC)C(N)=O (stereo not given) (H-[Nle]-Met-NH2; configuration not given here)
inactive: [1] 100 % of control | [2] 105 % of control | [3] 100 % of control

CC(=O)C1=C(C)NC(C)=C(C(C)=O)C1c1cccc([N+](=O)[O-])c1
inactive: dose: 25.0 mg/kg/injection, schedule: Q04DX003 (ip), vehicle: saline with Tween-80 100 % of control | dose: 50.0 mg/kg/injection, schedule: Q04DX003 (ip), vehicle: saline with Tween-80 100 % of control | [8] 100 % of control and 91 % of control

CCOC(=O)NCP(Cl)(CNC(=O)OCC)(CNC(=O)OCC)CNC(=O)OCC
inactive: [7] 99 % of control | dose: 100.0 mg/kg/injection, schedule: Q01DX009 (ip), vehicle: saline 86 % of control

CC(=O)OCC(OC(C)=O)C(Cl)CCl (stereo not given)
inactive: [1] 103 % of control | [2] 101 % of control | [3] 107 % of control

COCCN(CCOC)C1C2=C(CCCC2)OS(=O)(=O)C1c1ccccc1 (stereo not given)
inactive: dose: 60.0 mg/kg/injection, schedule: Q01DX005 (ip), vehicle: Klucel (hydroxypropylcellulose) (HPC) 101 % of control | dose: 120.0 mg/kg/injection, schedule: Q01DX005 (ip), vehicle: Klucel (hydroxypropylcellulose) (HPC) 105 % of control | dose: 240.0 mg/kg/injection, schedule: Q01DX005 (ip), vehicle: Klucel (hydroxypropylcellulose) (HPC) 104 % of control

O=C(CC(NO)c1ccccc1)NO (stereo not given)
inactive: dose: 50.0 mg/kg/injection, schedule: Q01DX009 (ip), vehicle: Klucel (hydroxypropylcellulose) (HPC) 99 % of control | dose: 100.0 mg/kg/injection, schedule: Q01DX009 (ip), vehicle: Klucel (hydroxypropylcellulose) (HPC) 105 % of control | dose: 200.0 mg/kg/injection, schedule: Q01DX009 (ip), vehicle: Klucel (hydroxypropylcellulose) (HPC) 115 % of control

CCOC(=O)CCCCCNC(=S)N1c2c(nc(N)[nH]c2=O)NCC1CNc1ccc(C(=O)NC(CCC(=O)O)C(=O)O)cc1 (stereo not given)
inactive: dose: 100.0 mg/kg/injection, schedule: Q01DX001 (ip), vehicle: sodium bicarbonate 89 % of control | dose: 200.0 mg/kg/injection, schedule: Q01DX001 (ip), vehicle: sodium bicarbonate 90 % of control | dose: 400.0 mg/kg/injection, schedule: Q01DX001 (ip), vehicle: sodium bicarbonate 92 % of control

CCCCc1ccc2nc(C)cc(N/N=C/c3ccc4c(c3)OCO4)c2c1
inactive: [9] 94 % of control | [10] 100 % of control | [4] 92 % of control and 94 % of control | [6] 92 % of control

O=C1c2ccccc2OCC1CS(=O)(=O)CC1COc2ccccc2C1=O (stereo not given)
inactive: dose: 100.0 mg/kg/injection, schedule: Q04DX003 (ip), vehicle: saline 98 % of control | dose: 200.0 mg/kg/injection, schedule: Q04DX003 (ip), vehicle: saline 97 % of control | dose: 400.0 mg/kg/injection, schedule: Q04DX003 (ip), vehicle: saline 91 % of control

NC(CCCCNC1CCCCC1)C(=O)O (stereo not given)
inactive: [11] 106 % of control | [12] 105 % of control | dose: 400.0 mg/kg/injection, schedule: Q01DX009 (ip), vehicle: saline with Tween-80 100 % of control

Cc1[nH]nc2c(NC[c-]3[c-][c-][c-][c-]3)ncnc12.[Fe].[c-]1[c-][c-][cH-][c-]1
inactive: dose: 6.25 mg/kg/injection, schedule: Q01DX005 (ip), vehicle: Klucel (hydroxypropylcellulose) (HPC) 101 % of control | [9] 100 % of control | [10] 115 % of control and 86 % of control

Cc1cccc(-c2nc(N)nc(N)n2)c1
inactive: [13] 92 % of control | [11] 95 % of control | [12] 104 % of control

CN(C)C1CCc2ccccc2C1OC(=O)/C=C/c1ccccc1 (stereo not given)
inactive: dose: 12.5 mg/kg/injection, schedule: Q01DX009 (ip), vehicle: saline with Tween-80 101 % of control | dose: 25.0 mg/kg/injection, schedule: Q01DX009 (ip), vehicle: saline with Tween-80 106 % of control | [13] 111 % of control | [11] 111 % of control
